The values below come from US20160122342A1, “ENHANCER OF ZESTE HOMOLOG 2 INHIBITORS” (GLAXOSMITHKLINE INTELLECTUAL PROPERTY (NO.2) LIMITED, priority 2013, published 2016).

Where two headings read alike, the source gives them in different places.

The conditions of series [1]: rcm bond, DCM.
The conditions of series [2]: from C=CCCc1cc(C)nc(OC)c1CNC(=O)c1cccc(N(CC)C2CCOCC2)c1CC=C; rcm bond; 12-membered ring; Grubbs II (2 x 20 mol%); DCM; 25.3 mM; 25.0 °C; 36.0 h.

In turn, `CCN(c1cccc2c1CC=CCCCCc1cc(C)nc(OC)c1CNC2=O)C1CCOCC1` returned a ring closure, isolated yield in series [1] (from C=CCCCCc1cc(C)nc(OC)c1CNC(=O)c1cccc(N(CC)C2CCOCC2)c1CC=C, 14-membered ring, Grubbs II (10 mol%, then ca. 10 mg), 15.8 mM, 25.0 °C, 22.0 h) of 73.1%. Take `COc1cc(Cl)cc2c1CC=CCCCc1cc(C)nc(OC)c1CNC2=O`: the ring closure, isolated yield in series [1] (from C=CCCCc1cc(C)nc(OC)c1CNC(=O)c1cc(Cl)cc(OC)c1CC=C, 13-membered ring, Grubbs II (10 mol%), 19.6 mM, 25.0 °C, 16.0 h) came to 76%.

`CCN(c1cccc2c1CC=CCCc1cc(C)nc(OC)c1CNC2=O)[C@H]1CC[C@@H](NC(=O)OC(C)(C)C)CC1` yielded a ring closure, isolated yield in series [1] (from C=CCCc1cc(C)nc(OC)c1CNC(=O)c1cccc(N(CC)[C@H]2CC[C@@H](NC(=O)OC(C)(C)C)CC2)c1CC=C, 12-membered ring, Hoveyda-Grubbs II (2 x 20 mol%), 39.8 mM, 55.0 °C, 72.0 h) of 57.8%. In series [1] (from C=CCOCc1cc(C)nc(OC)c1CNC(=O)c1cccc(N(CC)C2CCOCC2)c1CC=C, 13-membered ring, Grubbs II (10 mol%), 20.0 mM, 25.0 °C, 22.0 h), `CCN(c1cccc2c1CC=CCOCc1cc(C)nc(OC)c1CNC2=O)C1CCOCC1` came in with a ring closure, isolated yield of 54.7%. For `COc1cc(Cl)cc2c1CC=CCCc1cc(C)nc(OC)c1CNC2=O`, the ring closure, isolated yield in series [1] (from C=CCCc1cc(C)nc(OC)c1CNC(=O)c1cc(Cl)cc(OC)c1CC=C, 12-membered ring, Grubbs II (10 mol%), 19.4 mM, 25.0 °C, 16.0 h) is 69%. In turn, `CCN(c1cccc2c1C/C=C/CCc1cc(C)nc(OC)c1CNC2=O)C1CCOCC1` gave a ring closure, yield after HPLC in series [2] of 58%.

In series [1] (from C=CCOc1cc(C)nc(OC)c1CNC(=O)c1cccc(N(CC)C2CCOCC2)c1CC=C, 12-membered ring, Grubbs II (10+10 mol%, then 10 mg), 19.5 mM, 25.0 °C, 132.0 h), `CCN(c1cccc2c1C/C=C\COc1cc(C)nc(OC)c1CNC2=O)C1CCOCC1` registered a ring closure, isolated yield of 19%.
